Experimental data as given in PubChem BioAssay (NCI).
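96-well plates; 48 h exposure; 5 concentrations. Endpoints by linear interpolation between flanking doses. Not reached: highest tested concentration assigned. Abbreviation: GI50, concentration required for 50% inhibition of growth. TGI: total growth inhibition.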

What was measured:
Assay in all cases: NCI-60 cell line screen, 48 h
XF 498 CNS = test system: XF 498 CNS
SNB-78 CNS = test system: SNB-78 CNS
M19-MEL melanoma = test system: M19-MEL melanoma
LXFL 529 NSCLC = test system: LXFL 529 NSCLC
KM20L2 colon = test system: KM20L2 colon
DMS 114 small cell lung = test system: DMS 114 small cell lung
HCT-116 colon = test system: HCT-116 colon
DLD-1 colon = test system: DLD-1 colon
SR leukemia = test system: SR leukemia
BT-549 breast = test system: BT-549 breast
MDA-MB-231 breast = test system: MDA-MB-231 breast
MDA-MB-435 = test system: MDA-MB-435
PC-3 prostate = test system: PC-3 prostate
MCF7 breast = test system: MCF7 breast

SMILES | TGI (XF 498 CNS) | TGI (SNB-78 CNS) | TGI (M19-MEL melanoma) | TGI (KM20L2 colon) | TGI (DMS 114 small cell lung) | TGI (HCT-116 colon) | TGI (DLD-1 colon) | TGI (SR leukemia) | TGI (BT-549 breast) | TGI (MDA-MB-231 breast) | TGI (MDA-MB-435) | TGI (PC-3 prostate) | TGI (MCF7 breast) | GI50 (MDA-MB-435) | also measured
O=C(O)C(Br)Cc1ccc2c(c1)OCO2 (stereo unspecified) | 89.3 µM | > 100 µM | > 100 µM | > 100 µM | > 100 µM | > 100 µM | > 100 µM | > 100 µM |  |  |  |  |  |  | TGI (LXFL 529 NSCLC): > 100 µM
COc1cc2c3c(c4cc(OC)c(OC)cc4c2cc1OC)[C@H](O)[C@@H]1CCCN1C3 |  |  |  |  |  | 7.64 µM |  | 2.67 µM | 9.63 µM | 0.562 µM | 2.86 µM | 1.98 µM |  |  | 
CSc1sc(=S)sc1SC | > 100 µM | > 100 µM | > 100 µM | > 100 µM | > 100 µM | > 100 µM | > 100 µM |  |  |  |  |  | > 100 µM |  | 
COc1cc2c3c(n(C4CCNCC4)c(=O)c2cc1OC)-c1cc2c(cc1C3=O)OCO2 |  |  |  |  |  |  |  |  |  |  | 2.6 µM |  |  | 1.19 µM | 
S=C1NN=C2C(=C3CCCC4C5CCCCC5N2C34)N1 (stereo unspecified) |  |  |  |  |  |  |  | > 100 µM | > 100 µM |  |  |  | > 100 µM |  | 
C#C[C@@]1(O)[C@@H](CO)O[C@@H](n2cc(F)c3c(N)ncnc32)[C@@H]1O |  |  |  |  |  |  |  | > 100 µM | 4.18 µM | 2.98 µM | 3.26 µM | 3.24 µM |  | 0.416 µM | GI50 (BT-549 breast): 0.843 µM; GI50 (MDA-MB-231 breast): 0.379 µM; GI50 (SR leukemia): 0.185 µM; GI50 (PC-3 prostate): 0.293 µM
C[C@H](CCC1=NCCN1)[C@H]1CC[C@H]2[C@@H]3CC[C@@H]4C[C@H](O)CC[C@]4(C)[C@H]3CC[C@]12C |  |  |  |  |  | > 36.9 µM |  | > 20 µM | 33.4 µM | > 41 µM | 22 µM | 28.4 µM | > 57.4 µM |  | 
CCCCCCCCCCCCCCCCOCCCOP(=O)(O)C1CCCN(O)C1=O (stereo unspecified) |  |  |  |  |  |  |  |  |  | 16.8 µM | > 100 µM | 13.6 µM | 20 µM | 3.13 µM | GI50 (MCF7 breast): 3.39 µM; GI50 (MDA-MB-231 breast): 2.3 µM; GI50 (PC-3 prostate): 0.468 µM
COc1ccc(/C(Cl)=C(\C=O)c2ccc(Cl)c(Cl)c2)cc1OC | 7.95 µM | 31.2 µM | 23 µM | 18.8 µM | 33.9 µM | 15.2 µM | 20.3 µM |  |  |  |  |  |  |  | TGI (LXFL 529 NSCLC): 13.7 µM
